Data set [1] deals with Mus musculus. Put plainly: Antiviral activity against Kunming mouse infected with Influenza A virus (A/Puerto Rico/8/1934(H1N1)) assessed as reduction in viral titer in lung homogenate at 5 mg/kg, ip administered twice a day for 3 days after 24 hrs of viral infection. In kind it is functional, organism-based. Particulars: time 3.0 day.
Data set [2] relates to Mus musculus. Put plainly: Antiviral activity against Kunming mouse infected with Influenza A virus (A/Puerto Rico/8/1934(H1N1)) assessed as recovery in body weight at 5 mg/kg, ip administered twice a day with a time interval of 12 hrs for 4 days measured from day 8 upto 15 days (Rvb =18.02 g). In kind it is functional. Particulars: time 15 day.
Data set [3] deals with Mus musculus. Put plainly: Antiviral activity against Kunming mouse infected with Influenza A virus (A/Puerto Rico/8/1934(H1N1)) assessed as survival rate at 1.25 mg/kg, ip administered twice a day with a time interval of 12 hrs for 4 days relative to control. The data set is classed as functional. Particulars: 96 h, time 4 day.
Data set [4] in a line: Cytotoxicity against MDCK cells incubated for 1 hr by MTT assay. The data set is classed as toxicity, cell-based, Canis lupus familiaris. As to conditions: dog. (In general: Formazan colour is commonly taken as a measure of viable cells.)
Data set [5] relates to RAW264.7. Kind of data set: Anti-inflammatory activity against mouse RAW264.7 cells assessed as reduction in influenza A virus induced TNF alpha level at 1 ug/ml by qRT- PCR. In kind it is functional, cell-based. As to conditions: dose 1.0 µg/ml.
Data set [6] concerns Mus musculus. Kind of data set: Antiviral activity against Kunming mouse infected with Influenza A virus (A/Puerto Rico/8/1934(H1N1)) assessed as recovery in body weight at 1.25 mg/kg, ip administered twice a day with a time interval of 12 hrs for 4 days measured from day 8 upto 15 days (reference value: 17.58 g). In kind it is functional. Particulars: time 15 day.
Data set [7] deals with Influenza B virus. Kind of data set: Antiviral activity against Influenza B virus 699[…] clinical isolate infected in MDCK cells incubated for 1 hr by MTT assay. In kind it is functional, organism-based.
The subject of data set [8] is Erythrocyte. Kind of data set: Hemolytic activity in chicken erythrocytes at up to 50 uM pre-treated with virus for 30 mins followed by addition of cell measured after 30 mins by microplate reader assay. The data set is classed as toxicity, cell-based, Gallus gallus. Particulars: 0.5 h.
The test system of data set [9] is RAW264.7. Kind of data set: Anti-inflammatory activity against mouse RAW264.7 cells assessed as reduction in influenza A virus induced IL-1 beta level at 1 ug/ml by qRT- PCR. In kind it is functional, cell-based. As to conditions: dose 1.0 µg/ml.
Data set [10] is described as follows: Half life in Kunming mouse at 10 mg/kg, ip by HPLC analysis. In kind it is ADME, organism-based. Particulars: in vivo.
The subject of data set [11] is Influenza A virus. Put plainly: Antiviral activity against Influenza A virus (A/Puerto Rico/8/1934(H1N1)) infected in MDCK cells assessed as reduction in virus induced cytopathic effect after infection incubated for 1 hr by MTT assay. In kind it is functional, organism-based. Background: Cytopathic effects are the visible damage that an infection or toxin causes in cultured cells.

The subject of data set [12] is Mus musculus. Kind of data set: Antiviral activity against Kunming mouse infected with Influenza A virus (A/Puerto Rico/8/1934(H1N1)) assessed as increase in body weight at 5 mg/kg, ip measured after 15 days (reference value: 178.7%). As to conditions: time 15 day. In kind it is functional.
Data set [13] concerns Mus musculus. Put plainly: Antiviral activity against Kunming mouse infected with Influenza A virus (A/Puerto Rico/8/1934(H1N1)) assessed as survival rate at 5 mg/kg, ip administered once a day for 5 days relative to control. The data set is classed as functional. As to conditions: 120 h, time 5 day.
In data set [14] the test system is RAW264.7. Kind of data set: Anti-inflammatory activity against mouse RAW264.7 cells assessed as reduction in LPS induced IL-6 level at 1 ug/ml by qRT-PCR analysis. The data set is classed as functional, cell-based. Particulars: dose 1.0 µg/ml. (In general: Quantitative PCR measures a nucleic acid by following its amplification.)

This is an account of results in ChEMBL document CHEMBL5131467, “Multivalent peptide dendrimers inhibit the fusion of viral-cellular membranes and the cellular NF-κB signaling pathway” (Eur J Med Chem, 2022).

Structures are written as SMILES. Active and inactive are the calls of the source. No cut-off for these calls is given here. Where a SMILES comes first, the peptide text is derived from it. Bridges are numbered along the chain shown (N, C = ends). Roman numbers before positions name the chains, in order. Side-chain parts run from the residue outwards. The star is where a group is joined. Fmoc = O=C(OCC1c2ccccc2-c2ccccc21)*

In general, CC50 refers to the concentration at which the toxic effect on the cells reaches its halfway point. One may read the IC50 as the point on the concentration scale where inhibition reaches its midpoint. Broadly, the half-life is the time in which the quantity being followed falls by half. `NCCCC[C@H](NC(=O)OCC1c2ccccc2-c2ccccc21)C(=O)N[C@@H](CCCCN)C(=O)N[C@@H](Cc1c[nH]c2ccccc12)C(=O)N[C@@H](CCCCN)C(=O)NCCCC[C@H](NC(=O)[C@H](CCCCN)NC(=O)[C@H](Cc1c[nH]c2ccccc12)NC(=O)[C@H](CCCCN)NC(=O)[C@H](CCCCN)NC(=O)OCC1c2ccccc2-c2ccccc21)C(=O)NCCCC[C@H](NC(=O)[C@H](CCCCNC(=O)[C@H](CCCCN)NC(=O)[C@H](Cc1c[nH]c2ccccc12)NC(=O)[C@H](CCCCN)NC(=O)[C@H](CCCCN)NC(=O)OCC1c2ccccc2-c2ccccc21)NC(=O)[C@H](CCCCN)NC(=O)[C@H](Cc1c[nH]c2ccccc12)NC(=O)[C@H](CCCCN)NC(=O)[C@H](CCCCN)NC(=O)OCC1c2ccccc2-c2ccccc21)C(=O)NCC(=O)O` (I: Fmoc-KKWKK([Lys-Trp-Lys-Lys-Fmoc])KG-OH / II: Fmoc-KKWKK([Lys-Trp-Lys-Lys-Fmoc]); amide I:6-II:C): the result in data set [1], in data set [5], in [9] and in data set [14] was Active. Moreover, the Activity is given as 26.99 g in data set [2], 25.84 g in data set [6], “Toxic” in data set [8] and 129.4% in data set [12]. For the same molecule, the survival at 1.25 mg/kg in data set [3] amounted to 20%. For the same molecule, the CC50 at 1 h in [4] amounted to 41.9 µM. For the same molecule, the 50% inhibitory concentration (IC50) in data set [7] came out at 0.32 µM; in data set [11], 11.6 µM. The molecule also gave a half-life in data set [10] of 2.88 h. Also, the survival at 5 mg/kg in data set [13] came to 20%.
